In patent US8110573B2, “Pyrazole compounds that modulate the activity of CDK, GSK and aurora kinases” (Astex Therapeutics Limited, priority 2004, dated 2012):
Where a name gives a salt, the structure may show the parent alone.

Experiment: physchem
Settings: water, thermodynamic from solid

Q: For `O=C(Nc1c[nH]nc1-c1nc2cc(CN3CCOCC3)ccc2[nH]1)NC1CC1` [Hydrochloride, 1-cyclopropyl-3-[3-(5-morpholin-4-ylmethyl-1H-benzoimidazol-2-yl)-1H-pyrazol-4-yl]-urea], which solubility at 16 h is on record?
A: The solubility at 16 h was under 25 mg/mL.
